As a reminder, the Kd is the equilibrium constant for the complex coming apart. A high value points to weaker binding. For orientation: stoichiometry N means the number of molecules, sites or subunits per partner or assembly.

The target of assay [1] is T1, MMADHC (CblD) (Homo sapiens, UniProt Q9H3L0, C261S/C262S).
T1 sequence (Q9H3L0 1-296 C261S/C262S): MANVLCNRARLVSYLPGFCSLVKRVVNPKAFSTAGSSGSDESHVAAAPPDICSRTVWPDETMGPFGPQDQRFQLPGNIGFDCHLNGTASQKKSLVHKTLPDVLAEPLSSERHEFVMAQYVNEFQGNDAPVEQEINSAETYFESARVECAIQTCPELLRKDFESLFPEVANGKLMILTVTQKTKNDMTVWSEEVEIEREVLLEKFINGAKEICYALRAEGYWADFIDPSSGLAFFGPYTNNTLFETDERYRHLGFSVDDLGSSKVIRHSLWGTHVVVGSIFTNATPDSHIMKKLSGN
The experiment in a line: UV-visible titration. The format is binding.

The target of assay [2] is T2, C262S ^ΔNMMADHC–S–Cob(III) (human, UniProt Q9H3L0 116-296, C262S, thiolato-cob(III)alamin (cobalamin coordinated through a cysteine sulfur, -S-Cob(III))).
T2 sequence (looked up): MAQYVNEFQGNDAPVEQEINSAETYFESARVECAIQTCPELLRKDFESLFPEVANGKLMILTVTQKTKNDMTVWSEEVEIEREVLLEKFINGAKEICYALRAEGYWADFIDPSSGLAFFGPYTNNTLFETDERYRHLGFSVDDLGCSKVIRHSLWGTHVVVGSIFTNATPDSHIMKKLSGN
Description: UV-visible absorbance titration.

As for H2OCbl, the Kd in assay [1] is 8.4 ± 1.9 µM.

B1: ^ΔNMTR, C-terminal half of human methionine synthase (cap, B12 and AdoMet domains, residues 661–1265) (domain or fragment, UniProt Q99707 661-1265, looked up)
chain: IQTDEWRNGPVEERLEYALVKGIEKHIIEDTEEARLNQKKYPRPLNIIEGPLMNGMKIVGDLFGAGKMFLPQVIKSARVMKKAVGHLIPFMEKEREETRVLNGTVEEEDPYQGTIVLATVKGDVHDIGKNIVGVVLGCNNFRVIDLGVMTPCDKILKAALDHKADIIGLSGLITPSLDEMIFVAKEMERLAIRIPLLIGGATTSKTHTAVKIAPRYSAPVIHVLDASKSVVVCSQLLDENLKDEYFEEIMEEYEDIRQDHYESLKERRYLPLSQARKSGFQMDWLSEPHPVKPTFIGTQVFEDYDLQKLVDYIDWKPFFDVWQLRGKYPNRGFPKIFNDKTVGGEARKVYDDAHNMLNTLISQKKLRARGVVGFWPAQSIQDDIHLYAEAAVPQAAEPIATFYGLRQQAEKDSASTEPYYCLSDFIAPLHSGIRDYLGLFAVACFGVEELSKAYEDDGDDYSSIMVKALGDRLAEAFAEELHERVRRELWAYCGSEQLDVADLRRLRYKGIRPAPGYPSQPDHTEKLTMWRLADIEQSTGIRLTESLAMAPASAVSGLYFSNLKSKYFAVGKISKDQVEDYALRKNISVAEVEKWLGPILGYDTD
With B1, in assay [2], the “stoichiometry N” value was determined as 1.

The values above are taken from PMC11063128 (Journal of the American Chemical Society, 2023).
